pIC50: −log10 of the molar value.
Tests used:
[1] = system: MCF-7 cell line; assay: In vitro antiproliferative activity, MTT assay, MCF-7; format: cell-based; details: Homo sapiens, MCF7, 48 h
Method: (§1) HCT116, MCF-7 and B16 cell lines were plated on 96-well plates at a density of 5000 per well and incubated overnight. […] After 48 h, 0.5% MTT (Amresco, Solon, OH, USA) solution was added to each well, and further incubation for 4 h, then cells were centrifuged at 2500 rpm for 15 min and removed from the culture medium. And add 150 μL DMSO to dissolve the formazan. After mixing for 5 min, optical density was detected at 570 nm on a microplate reader (Thermo, Waltham, MA, USA).

[2] = molecular target: EGFR (Homo sapiens, UniProt P00533); assay: EGFR inhibitory assay (caliper mobility shift assay)
Method: (§3) Each of these compounds was dissolved in DMSO at 10 mM, diluted to 50× of the final desired highest inhibitor concentration in reaction by 100% DMSO, and 100 μL of each dilution was added to one well on 96-well storage plate, and diluted by transferring 10 μL to 90 μL of 100% DMSO in the next well. Besides, 100 μL of 100% DMSO was added to two empty wells for no compound control and no enzyme control in the same 96-well plate respectively. The plate was marked as source plate. 10 μL of each compound was transferred from the source plate to a new 96-well plate, which was marked as the intermediate plate. Next, 90 μL of 1× kinase base buffer was added to each well of the intermediate plate, and mixed by shaking vigorously for 10 min. A total of 5 μL of each well from the 96-well intermediate plate was transferred to a 384-well plate in duplicate.
(§4) Kinase reaction: kinase in 1× kinase base buffer, FAM-labeled peptide and ATP in the 1× kinase base buffer were added, then 10 μL of 2.5× enzyme solution was added to each well of the 384-well assay plate. After incubating at room temperature for 10 min, 10 μL of 2.5× peptide solution was added to each well of the 384-well assay plate. […] Finally, the kinase reactions were quenched with 25 μL of EDTA and the plates were washed. The dates were collected and converted with the caliper program.

[3] = Body weight in B16 melanoma xenograft model; format: in vivo; details: B16 tumor-bearing C57BL/6J mice; for Body Weight End: 90 mg/kg for 14 days, end of treatment; for Body Weight Initial: 90 mg/kg, before treatment
Method: (§2) Male C57BL/6J mice were employed to establish the xenograft tumor model by subcutaneous injection (S.C.) of 6 × 10^6 B16 cells. […] In the end of treatment, the mice were sacrificed and the tumor were peeled off and weighted. The inhibition rate of tumor growth was calculated. All animal protocols were conformed to the Guidelines for the Care and Use of Laboratory Animals approved by the Animal Care and Use Committee of Yantai University.

[4] = system: B16 cell line; assay: In vitro antiproliferative activity, MTT assay, B16; format: cell-based; details: Mus musculus, 48 h
Method: as §1

[5] = system: HCT116 cell line; assay: In vitro antiproliferative activity, MTT assay, HCT116; format: cell-based; details: Homo sapiens, HCT-116, 48 h
Method: as §1

[6] = molecular target: VEGFR-2 (Homo sapiens, UniProt P35968); assay: VEGFR-2 inhibitory assay (caliper mobility shift assay)
Method: as §3, §4

[7] = system: B16 melanoma xenograft; assay: In vivo antitumor activity, B16 melanoma xenograft model; details: 90 mg/kg for 14 days (text: orally; table footnote: i.p.), C57BL/6J mice
Method: as §2

Sequence of VEGFR-2 (P35968 20-1356): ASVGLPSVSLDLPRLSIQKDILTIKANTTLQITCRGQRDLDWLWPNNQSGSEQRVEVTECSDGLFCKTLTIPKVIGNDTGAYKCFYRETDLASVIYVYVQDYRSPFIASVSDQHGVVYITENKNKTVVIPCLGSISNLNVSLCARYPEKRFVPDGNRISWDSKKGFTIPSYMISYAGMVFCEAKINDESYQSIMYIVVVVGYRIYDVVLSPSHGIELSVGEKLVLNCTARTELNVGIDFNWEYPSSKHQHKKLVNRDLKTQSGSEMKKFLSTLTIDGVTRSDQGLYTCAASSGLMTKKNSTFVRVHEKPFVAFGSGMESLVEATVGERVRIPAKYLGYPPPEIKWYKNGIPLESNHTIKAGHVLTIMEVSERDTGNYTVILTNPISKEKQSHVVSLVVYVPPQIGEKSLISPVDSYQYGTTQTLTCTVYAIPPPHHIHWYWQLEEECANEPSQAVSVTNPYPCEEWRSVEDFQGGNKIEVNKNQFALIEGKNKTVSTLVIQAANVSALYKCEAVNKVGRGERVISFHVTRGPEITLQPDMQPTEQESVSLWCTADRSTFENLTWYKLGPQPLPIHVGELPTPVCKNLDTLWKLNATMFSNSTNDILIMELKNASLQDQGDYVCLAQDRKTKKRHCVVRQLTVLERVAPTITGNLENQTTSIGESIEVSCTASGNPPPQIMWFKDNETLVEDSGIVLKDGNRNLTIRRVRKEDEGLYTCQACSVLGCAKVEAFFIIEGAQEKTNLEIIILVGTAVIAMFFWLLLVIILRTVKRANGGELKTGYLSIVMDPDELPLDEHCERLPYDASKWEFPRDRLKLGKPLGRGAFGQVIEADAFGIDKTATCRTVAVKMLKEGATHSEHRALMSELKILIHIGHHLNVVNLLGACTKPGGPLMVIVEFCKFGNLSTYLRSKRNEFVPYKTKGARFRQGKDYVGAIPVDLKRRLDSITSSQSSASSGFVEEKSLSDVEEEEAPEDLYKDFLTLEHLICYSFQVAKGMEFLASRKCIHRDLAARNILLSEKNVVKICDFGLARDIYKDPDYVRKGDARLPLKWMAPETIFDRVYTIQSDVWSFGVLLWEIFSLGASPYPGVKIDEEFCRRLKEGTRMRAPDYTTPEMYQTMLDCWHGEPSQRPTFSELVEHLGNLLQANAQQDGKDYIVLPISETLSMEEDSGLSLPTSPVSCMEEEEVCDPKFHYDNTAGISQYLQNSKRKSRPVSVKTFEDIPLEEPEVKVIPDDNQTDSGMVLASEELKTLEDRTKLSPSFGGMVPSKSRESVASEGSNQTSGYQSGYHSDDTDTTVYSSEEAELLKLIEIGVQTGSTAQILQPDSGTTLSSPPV
Sequence of EGFR (P00533 25-1210): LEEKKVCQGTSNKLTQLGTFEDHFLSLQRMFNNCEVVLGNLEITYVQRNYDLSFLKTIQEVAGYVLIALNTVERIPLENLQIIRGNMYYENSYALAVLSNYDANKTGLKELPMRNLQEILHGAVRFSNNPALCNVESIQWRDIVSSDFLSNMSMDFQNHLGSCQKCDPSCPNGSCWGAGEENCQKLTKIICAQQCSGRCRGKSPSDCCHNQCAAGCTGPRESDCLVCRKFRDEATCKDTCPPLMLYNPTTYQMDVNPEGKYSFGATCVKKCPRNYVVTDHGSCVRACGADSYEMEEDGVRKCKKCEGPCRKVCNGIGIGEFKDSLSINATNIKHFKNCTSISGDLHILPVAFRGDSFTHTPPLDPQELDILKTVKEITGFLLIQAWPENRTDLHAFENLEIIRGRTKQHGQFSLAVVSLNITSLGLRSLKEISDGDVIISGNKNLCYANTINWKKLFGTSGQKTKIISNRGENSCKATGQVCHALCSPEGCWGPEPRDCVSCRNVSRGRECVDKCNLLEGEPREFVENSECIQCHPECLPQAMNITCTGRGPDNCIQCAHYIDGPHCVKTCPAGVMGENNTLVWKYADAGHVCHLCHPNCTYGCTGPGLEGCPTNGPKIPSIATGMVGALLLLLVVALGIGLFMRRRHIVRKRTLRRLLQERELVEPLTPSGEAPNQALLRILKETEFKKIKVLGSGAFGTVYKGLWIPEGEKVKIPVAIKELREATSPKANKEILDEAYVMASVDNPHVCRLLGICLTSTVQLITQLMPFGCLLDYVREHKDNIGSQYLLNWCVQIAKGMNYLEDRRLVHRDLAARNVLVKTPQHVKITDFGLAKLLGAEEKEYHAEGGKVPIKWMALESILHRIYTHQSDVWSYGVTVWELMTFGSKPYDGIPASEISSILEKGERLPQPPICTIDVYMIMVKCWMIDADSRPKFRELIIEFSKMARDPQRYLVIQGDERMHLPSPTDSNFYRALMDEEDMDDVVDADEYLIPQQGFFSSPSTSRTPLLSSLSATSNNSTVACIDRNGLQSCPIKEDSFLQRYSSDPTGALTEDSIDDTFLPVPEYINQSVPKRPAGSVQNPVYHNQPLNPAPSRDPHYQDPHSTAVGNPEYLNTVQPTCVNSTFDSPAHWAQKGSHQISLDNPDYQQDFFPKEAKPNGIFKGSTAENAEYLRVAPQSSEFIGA

pIC50 [1] | pIC50 [2] | pIC50 [4] | pIC50 [5] | pIC50 [6] | melting point [°C] | SMILES | Body Weight End [3] [g] | Body Weight Initial [3] [g] | Inhibition Rate of tumor growth [7] [%] | Tumor Weight [7] [g] | Inhibition Rate of tumor growth ([7]; listed as Sorafenib) [%]
4.81 | 8.00 | 5.25 | 5.08 | 7.10 | 150.3 to 152 | COc1cc2ncnc(Sc3cccc(NC(=S)Nc4ccc(Br)c(C(F)(F)F)c4)c3)c2cc1OC [Compound 10q, 1-(4-Bromo-3-trifluoromethylphenyl)-3-[3-(6,7-dimethoxyquinazolin-4-ylsulfanyl)phenyl] thiourea] | 20.2 ± 2.7 | 19.1 ± 2.7 | 64.06 | 0.46 ± 0.14 | 
4.75 | 7.70 | 5.21 | 5.04 | 7.30 |  | COc1cc2ncnc(Oc3cccc(NC(=S)Nc4ccc(Cl)c(C(F)(F)F)c4)c3)c2cc1OC [Compound 10b, 1-(4-Chloro-3-trifluoromethylphenyl)-3-[3-(6,7-dimethoxyquinazolin-4-yloxy)phenyl]thiourea] | 19.5 ± 3.0 | 18.9 ± 1.8 | 49.22 | 0.65 ± 0.22 | 
4.75 |  | 5.03 | 4.98 |  |  | CNC(=O)c1cc(Oc2ccc(NC(=O)Nc3ccc(Cl)c(C(F)(F)F)c3)cc2)ccn1 [sorafenib, reference compound] | 21.3 ± 2.4 | 20.7 ± 2.1 | 31.25 | 0.88 ± 0.46 | 31.25
4.68 | 8.00 | 5.10 | 5.09 | 7.15 | 162.2 to 164 | COc1cc2ncnc(Sc3cccc(NC(=S)Nc4ccc(Cl)c(C(F)(F)F)c4)c3)c2cc1OC [Compound 10m, 1-(4-Chloro-3-trifluoromethylphenyl)-3-[3-(6,7-dimethoxyquinazolin-4-ylsulfanyl)phenyl] thiourea] | 20.9 ± 1.6 | 19.2 ± 2.1 | 20.31 | 1.02 ± 0.36 | 

From publication PMC5943947 (Molecules : A Journal of Synthetic Chemistry and Natural …, 2017)
